This passage reports glass transition temperature results from the PolyMetriX glass transition set.

As to `*/C(=N\c1ccccc1)c1ccc(-c2ccc(*)cc2)cc1` (repeat unit), the glass transition temperature came out at 225.00 °C. The same measure for `*=Nc1cccc(/N=C(/C=C/C(=*)c2ccccc2)c2ccccc2)c1` (repeat unit): 178.00 °C; for `*C#CC#Cc1cc(C(C)(C)C)cc2c3cc(C(C)(C)C)cc(*)c3n(CCCCCCCCCCCCCCCC)c12` (repeat unit): 67.00 °C. The same measure for `*CC(*)C(=O)Nc1cccc(Cl)c1` (repeat unit): 70.00 °C. `*CC(*)C(=O)OC(F)(C(F)(F)F)C(F)(F)F` (repeat unit) registered a glass transition temperature of 10.00 °C. In the case of `*CC(*)C(=O)OC(F)(F)C(F)(F)C(F)(F)C(F)(F)C(F)(F)C(F)(F)C(F)(F)C(F)(F)F` (repeat unit) it was 9.00 °C; in that of `*CC(*)C(=O)OC([2H])([2H])[2H]` (repeat unit), 35.00 °C. `*CC(*)C(=O)OC1CC2CCC1(C)C2(C)C` (repeat unit): the glass transition temperature worked out at 100.00 °C. The same measure for `*CC(*)C(=O)OCC(C)(C)C` (repeat unit): 22.00 °C; for `*CC(*)C(=O)OCC(COC(=O)c1ccccc1)(COC(=O)c1ccccc1)COC(=O)c1ccccc1` (repeat unit): 48.00 °C. In the case of `*CC(*)C(=O)OCC(F)(F)C(F)(F)C(F)(F)C(F)(F)C(F)(F)C(F)(F)C(F)(F)F` (repeat unit) it was -17.00 °C; in that of `*CC(*)C(=O)OCC(F)(F)C(F)(F)F` (repeat unit), -26.00 °C.

Turning to `*CC(*)C(=O)OCC(F)(F)C(F)(F)OC(F)(F)C(F)(F)C(F)(F)F` (repeat unit), the glass transition temperature is -68.00 °C. In the case of `*CC(*)C(=O)OCCCCCC(=O)Oc1ccc(-c2ccc(C#N)cc2)cc1` (repeat unit) it was 38.00 °C. In the case of `*CC(*)C(=O)OCCCCCCCCCCOc1cnc(-c2ccc(OC(=O)C3COC(C)(C)O3)cc2)nc1` (repeat unit) it was 29.00 °C; in that of `*CC(*)C(=O)OCCCCCCCCCOC(=O)c1ccc(OC(=O)c2ccc(C#N)cc2)cc1` (repeat unit), 15.00 °C. In the case of `*CC(*)C(=O)OCCCCCCCCOC(=O)c1ccc(OC(=O)c2ccc(C#N)cc2)cc1` (repeat unit) it was 15.00 °C; in that of `*CC(*)C(=O)OCCCCCCCCn1c2ccccc2c2ccccc21` (repeat unit), 12.00 °C.

The molecule `*CC(*)C(=O)OCCCCCCOc1ccc(-c2ccc(C#N)cc2)cc1` (repeat unit) yielded a glass transition temperature of 45.00 °C. As for `*CC(*)C(=O)OCCCCCCOc1ccc(C(=O)Oc2ccc(OC)cc2)cc1` (repeat unit), the glass transition temperature turned out to be 29.50 °C. The same measure for `*CC(*)C(=O)OCCCCCCn1c2ccccc2c2ccccc21` (repeat unit): 48.00 °C; for `*CC(*)C(=O)OCCCCOc1ccc(-c2ccc(C#N)cc2)cc1` (repeat unit): 30.00 °C; for `*CC(*)C(=O)OCCCOC` (repeat unit): -66.50 °C. The same measure for `*CC(*)C(=O)OCCCOc1ccc(C(=O)OCCCC(F)(F)C(F)(F)C(F)(F)C(F)(F)C(F)(F)C(F)(F)F)cc1` (repeat unit): 17.00 °C. `*CC(*)C(=O)OCCCSCC` (repeat unit) registered a glass transition temperature of -76.00 °C. Turning to `*CC(*)C(=O)OCCN(CC)c1ccc(/N=N/c2ccc([N+](=O)[O-])cc2)cc1` (repeat unit), the glass transition temperature was found to be 102.00 °C. Consider `*CC(*)C(=O)OCCN(CC)c1ccc(/N=N/c2ccc([N+](=O)[O-])cc2Cl)cc1` (repeat unit), for which the glass transition temperature amounted to 87.00 °C. The same measure for `*CC(*)C(=O)OCCOC(F)(F)C(F)F` (repeat unit): -22.00 °C; for `*CC(*)C(=O)OCCOCC(F)(F)F` (repeat unit): -38.00 °C. `*CC(*)C(=O)OCCOc1ccc(C(=O)Oc2ccc(OC)cc2)cc1` (repeat unit): the glass transition temperature worked out at 70.00 °C.

In the case of `*CC(*)C(=O)OCCSCC#N` (repeat unit), the glass transition temperature is -24.00 °C. `*CC(*)C(=O)OCCSCCC#N` (repeat unit) returned a glass transition temperature of -50.00 °C. In the case of `*CC(*)C(=O)OCCSCCCC#N` (repeat unit) it was -58.00 °C; in that of `*CC(*)C(=O)OCc1ccccc1` (repeat unit), 9.2 °C; in that of `*CC(*)C(=O)Oc1ccc(-c2ccccc2)cc1` (repeat unit), 110.00 °C. The molecule `*CC(*)C(=O)Oc1ccc(/N=N/c2ccc(OC)cc2)cc1` (repeat unit) showed a glass transition temperature of 140.00 °C.

In the case of `*CC(*)C(=O)Oc1ccc(C#N)cc1` (repeat unit), the glass transition temperature worked out at 92.00 °C. As to `*CC(*)C(=O)Oc1ccc(C(=O)Oc2ccc(OC(=O)c3ccc(OCCCC)cc3)cc2)cc1` (repeat unit), the glass transition temperature is 47.00 °C.

`*CC(*)C(=O)Oc1ccc(C(=O)Oc2ccc(OC(=O)c3ccc(OCCCCC)cc3)cc2)cc1` (repeat unit) yielded a glass transition temperature of 48.00 °C. With `*CC(*)C(=O)Oc1ccc(C(=O)c2ccc(Cl)cc2)cc1` (repeat unit), the glass transition temperature was found to be 78.00 °C. The same measure for `*CC(*)C(=O)Oc1ccc(C(C)(C)C)cc1` (repeat unit): 71.00 °C; for `*CC(*)C(=O)Oc1ccc(OC)cc1` (repeat unit): 50.50 °C; for `*CC(*)C(=O)Oc1cccc(C(=O)OCC)c1` (repeat unit): 24.00 °C. In the case of `*CC(*)C(=O)Oc1cccc(C)c1` (repeat unit), the glass transition temperature worked out at 24.50 °C. `*CC(*)C(=O)Oc1cccc2ccccc12` (repeat unit): the glass transition temperature came to 85.00 °C. Consider `*CC(*)C(=O)c1ccc(Br)c(OC)c1` (repeat unit), for which the glass transition temperature stood at 44.00 °C. As to `*CC(*)C(=O)c1ccc(CCC)cc1` (repeat unit), the glass transition temperature turned out to be 44.00 °C.

`*CC(*)C(C)=O` (repeat unit): the glass transition temperature was 115.00 °C. The same measure for `*CC(*)C1CCCCC1C` (repeat unit): 186.00 °C; for `*CC(*)CC1CCCC1` (repeat unit): 60.00 °C. In the case of `*CC(*)CCCCCCCCCCCC` (repeat unit) it was 10.00 °C.

Regarding `*CC(*)CCCCCCCCCI` (repeat unit), the glass transition temperature is -6.00 °C.

`*CC(*)CCI` (repeat unit) had a glass transition temperature of 70.00 °C.

The molecule `*CC(*)CN` (repeat unit) had a glass transition temperature of 190.00 °C. With `*CC(*)CNc1ccc([N+](=O)[O-])cc1[N+](=O)[O-]` (repeat unit), the glass transition temperature came out at 160.00 °C. The same measure for `*CC(*)NC=O` (repeat unit): 150.00 °C; for `*CC(*)OC(=O)C(C)(C(C)C)C(C)C` (repeat unit): 120.00 °C. In the case of `*CC(*)OC(=O)C(Cl)(Cl)Cl` (repeat unit) it was 59.00 °C; in that of `*CC(*)OC(=O)CC1CCCC1` (repeat unit), -3.00 °C.

For `*CC(*)OC(=O)CCCC(=O)c1ccccc1` (repeat unit), the glass transition temperature was found to be 45.00 °C. The same measure for `*CC(*)OC(=O)CCl` (repeat unit): 20.5 °C. The molecule `*CC(*)OC(=O)OC([2H])([2H])[2H]` (repeat unit) gave a glass transition temperature of 55.00 °C. The molecule `*CC(*)OC(=O)OCCC(F)(F)C(F)(F)C(F)(F)C(F)(F)C(F)(F)C(F)(F)F` (repeat unit) displayed a glass transition temperature of 37.00 °C. The same measure for `*CC(*)OC(=O)c1ccc(Br)cc1` (repeat unit): 85.50 °C; for `*CC(*)OC(=O)c1ccc(C(C)(C)C)cc1` (repeat unit): 121.00 °C. Take `*CC(*)OC(=O)c1ccc(C)cc1` (repeat unit): the glass transition temperature came out at 73.50 °C. Regarding `*CC(*)OC(=O)c1ccc(CC)cc1` (repeat unit), the glass transition temperature came to 57.00 °C. In the case of `*CC(*)OC(=O)c1ccc(Cl)cc1` (repeat unit) it was 70.2 °C; in that of `*CC(*)OC(=O)c1ccc(OC(=O)CCC)cc1` (repeat unit), 61.00 °C; in that of `*CC(*)OC(=O)c1ccc(OC(C)=O)cc1` (repeat unit), 76.00 °C. In the case of `*CC(*)OC(=O)c1cccc(OC)c1` (repeat unit) it was 44.00 °C. As for `*CC(*)OC(=O)c1ccccc1C` (repeat unit), the glass transition temperature stood at 42.50 °C. As for `*CC(*)OC(=O)c1ccccc1OC` (repeat unit), the glass transition temperature worked out at 65.00 °C.

Take `*CC(*)OC(=O)c1ccccc1OC(C)=O` (repeat unit): the glass transition temperature was 59.50 °C. The same measure for `*CC(*)OC(=O)c1ccncc1` (repeat unit): 98.50 °C; for `*CC(*)OC(=O)c1nn(C(C)=O)c2ccccc12` (repeat unit): 150.00 °C; for `*CC(*)OC(F)(C(F)(F)F)C(F)(F)F` (repeat unit): 65.00 °C. Regarding `*CC(*)OCC(C)(C)CC` (repeat unit), the glass transition temperature was found to be 9.00 °C. `*CC(*)OCC(CC)CCCC` (repeat unit) registered a glass transition temperature of -66.00 °C.

Consider `*COc1ccc(C(=C(Cl)Cl)c2ccc(O*)cc2)cc1` (repeat unit), for which the glass transition temperature stood at 108.00 °C. For `*O[Si](C)(C)C#C[Si](C)(C)C#C[Si](C)(C)C#C[Si](C)(C)C#C[Si](*)(C)C` (repeat unit), the glass transition temperature is -23.00 °C. In the case of `*c1ccc(C#Cc2cc(OCCCCCCCC)c(C#Cc3ccc(-c4nnc(*)o4)cc3)cc2OCCCCCCCC)cc1` (repeat unit) it was 130.00 °C.
